Test results: patent publication US10370378B2, “Treatment of sleep disorders” (Evotec International GmbH, priority 2007, dated 2019)
Marks after values point to notes of the source that are not given here.

What was measured:
Format in all cases: in vivo, human
[1] = test system: healthy volunteers subjected to road traffic noise; assay: Example 1: placebo controlled cross-over study, road noise model
Description: A placebo controlled, randomized, double-blind, cross-over study of the effects of the compound of formula (II) was conducted using a road noise model using 12 healthy volunteers. Specifically, the volunteers were subjected to road traffic noise to imitate the effects of insomnia, and the medication was orally administered 5 minutes before the 11 pm bed time in 1.0 mg, 1.5 mg, 2 mg and 2.5 mg doses in the form of a hard gelatine capsule containing the powdered compound of formula (II) in free base form. Measurements were then taken at 8, 10 and 12 hours after dosing.

[2] = Example 2: single and repeat dose pharmacokinetic, safety and pharmacodynamic study; conditions: healthy volunteers, oral
Description: A single and repeat dose pharmacokinetic safety and pharmacodynamic study of the effects of the compound of formula (II) was conducted using healthy volunteers. The compound of formula (II) in free base form was administered orally in 1 mg, 1.5 mg, 2 mg and 2.5 mg doses via a hard gelatine capsule containing the compound in powder form.

[3] = Pharmacokinetic profile in non-elderly adults and the elderly (FIG. 16); conditions: free base
Description: FIG. 16 is a chart showing an exemplary pharmacokinetic (PK) profile of the compound of formula (II) (free base) in both the non-elderly adults and the elderly. Mean dose adjusted plasma concentrations of the compound of formula (II) (free base) in non-elderly (open circle) and elderly males (open square) and M1 (active metabolite of the compound of formula (II) (free base)) in non-elderly adults (filled circle) and the elderly (filled square).
As a result, the inventors determined that the same or similar doses of the compound of formula (II), which are effective for non-elderly adults (18-64 years of age), could be effective for the elderly.

[4] = test system: primary insomnia in adult patients; assay: Example 3: placebo-controlled crossover study in primary insomnia, adult patients younger than 65 (PSG, patient reports, DSST, safety); conditions: for Number of Patients with Any Event / Number of Patients with Headache / Number of Patients with Somnolence: number (percent)
Description: A randomized, multicenter, double-blind, placebo-controlled crossover study was conducted to assess the efficacy of the 1.5 mg and 2.5 mg doses of the compound of formula (II) in the treatment of primary insomnia in adult patients. Specifically, one of the objectives of the study was to asses the efficacy of 1.5 mg and 2.5 mg doses on PSG and patient-reported measures of sleep. Also, the study was aimed at assessing the safety of 1.5 mg and 2.5 mg doses.
The study in this Example was performed for two consecutive nights with a 5-12 day washout between each period. The dosing was conducted 30 minutes before lights were turned out for the night via oral administration of a hard gelatine capsule containing the compound of formula (II) (free base) in powder form. PSG was taken for 8 hours from “lights out” on nights 1 and 2 of each treatment period. Centralized scoring of PSG was used. Testing for residual effects using the Digit Symbol Substitution Test (DSST) was performed at least 30 minutes after wake time (9 hours post dose).
The study was conducted using 67 subjects younger than 65 years of age (21 males, 46 females; mean age 45.1 yrs, range 23-64 yrs) with a documented diagnosis of primary insomnia (DSM-IV criteria). These subjects' typical bed time was between 9 pm and 1 am with at least 7 hours in bed. These subjects reported sleep latency of at least 45 minutes and TST of not more than 6.5 hours in a sleep diary for at least 3 of 7 nights.
Mean WASO of the patients was at least 40 minutes and mean TST was 240-420 minutes.

[5] = 1.5, 2.0 & 2.5 mg oral, objective
[6] = all 4 doses (1.0, 1.5, 2, 2.5 mg)
[7] = all 4 doses, objective residual effects

## CN(C)Cc1nc(-c2ncn3c2CN(C)C(=O)c2c(Cl)cccc2-3)no1 [compound of formula (II), 7-chloro-3-(5-dimethylaminomethyl-[1,2,4]oxadiazol-3-yl)-5-methyl-4,5-dihydro-imidazo[1,5-a][1,4]benzodiazepine-6-one]
[1]; 2.5 mg
  Subjective assessment (LARS): Coordination: No impairment
  Subjective assessment (LARS): Mood: No impairment
  Subjective assessment (LARS): Sedation: No impairment
[1]; [5]
  WASO, 2nd half (hrs 5-8): Significantly reduced
  WASO, full night (hrs 0-8): Significantly reduced
[1]; 2.0 & 2.5 mg oral, objective
  Sleep Efficiency Index: Significantly improved
  TST: Significantly improved
[1]; 8 to 12 hours after dose, data corrected for multiple comparisons
  Performance on any of the cognitive or psychomotor tests: no impairment
[1]; all 4 doses
  Choice Reaction Time - Motor Component: No effect (all 4 doses)
  Critical Flicker Fusion Test: No effect (all 4 doses)
  Word Recall - delayed (WRd): No effect (all 4 doses)
[1]; [6]
  SWS (% and duration): Significantly increased
  Stage IV Sleep (% and duration): Significantly increased
[1]; all 4 doses, model considered nondiscriminant for sleep onset
  Leeds Sleep Evaluation Questionnaire: Getting to sleep: (No effect to all 4 doses)*
[1]; [7]
  Rapid Visual Information Processing: No effect (all 4 doses)
  Sustained Attention to Response (SART): No effect (all 4 doses)
[1]; all 4 doses, subjective
  Leeds Sleep Evaluation Questionnaire: Early morning behaviour (clumsiness & tiredness): No effect (all 4 doses)
  Leeds Sleep Evaluation Questionnaire: Ease of awakening: No effect (all 4 doses)
[1]; at 8 or 12 h, all 4 doses
  Sternberg Memory Task (STM): No effect at 8 or 12 h (all 4
[1]; at 10 or 12 h, all 4 doses
  Continuous Tracking Task - reaction time: No effect at 10 or 12 h (all
[1]; at 8 h, all 4 doses
  Continuous Tracking Task - deviation: No effect at 8 h (all 4
[2]
  effect of food on the extent of absorption: little or no effect
  pharmacokinetic profile on day 14 after repeat dosing compared to day 1: no significant differences
[3]
  pharmacokinetic (PK) profile in non-elderly versus elderly: similar
[4]; 1.5 mg (n = 71)
  Number of Patients with Any Event: 13 (18.3%)
  Number of Patients with Headache: 3 (4.2%)
  Number of Patients with Somnolence: 2 (2.8%)
[4]; 1.5 mg and 2.5 mg doses
  safety and tolerability: safe and well-tolerated
[4]; 1.5 mg or 2.5 mg
  patient-reported residual sedation effects compared with placebo: no patient-reported residual sedation effects
[4]; 2.5 mg (n = 71)
  Number of Patients with Any Event: 18 (25.4%)
  Number of Patients with Headache: 6 (8.5%)
  Number of Patients with Somnolence: 4 (5.6%)
[4]; 2.5 mg, each hour except hour 7 (p 0.0577)
  total time awake during each hour after dosing: statistically significant reduction
[4]; 1.5 and 2.5 mg
  REM sleep (sleep architecture): only a small effect
  slow wave sleep (sleep architecture): no impairment
[4]; 1.5 and 2.5 mg doses
  patient reported sleep quality: marked improvement
[4]; 9 hours after dose
  DSST scores compared with placebo: only slightly lower
